# According to US20240151711A1, “ADJUVANT FOR VACCINE DEVELOPMENT” (priority 2021, published 2024):
# How the values were obtained:
# [1] = system: tumor; settings: intra-tumoral administration; cited from earlier work
# [2] = system: BMDCs derived from wild-type mice or Sting knockout mice; assay: Identification of key adjuvant component in mRNA vaccine (EDOPC replaced with DOTAP); assay type: cell-based, mouse; settings: Vehicle or MVP prepared with EDOPC or DOTAP; FIG. 22
# From the text: In order to determine the role of the charged lipid (i.e., EDOPC), positively charged 1,2-dioleoyl-3-trimethylammonium-propane (DOTAP) was used to replace EDOPC to prepare vehicle and mRNA vaccine. The resulting vehicle (Vehicle with DOTAP) and mRNA vaccine (MVP with DOTAP) were applied to compare with the parental vehicle (Vehicle with EDOPC) and mRNA vaccine (MVP with EDOPC) on stimulation of cytokine expression after BMDC treatment.
# [3] = system: BMDCs; assay: Stimulation of cytokine production by mRNA vaccine in BMDCs (ELISA); assay type: cell-based, mouse; settings: 24 hours; FIG. 20
# Protocol: GM-CSF/IL4-induced BMDCs were seeded into 24-well plates at a seeding density of 5×10^5 cells/well, and treated with PBS control, the TLR7 agonist imiquimod, mRNA-free vehicle control, mRNA core control, or mRNA vaccine (MVP) for 24 hours. Cell growth media were collected and IFN-b and TNF-α levels were measured with ELISA assay (FIG. 20). To determine pathways that play important roles on stimulation of cytokine production, BMDCs were induced from bone marrow cells collected from wild-type mice, Sting knockout mice, and Tlr7 knockout mice. Cells were treated with PBS control, mRNA-free vehicle control, mRNA core control, or mRNA vaccine (MVP) for 24 hours, and cell growth media were collected 24 hours later for measurement of cytokine levels.
smiles,measurement,setting,value
"Cc1ccc2c(=O)c3cccc(CC(=O)O)c3oc2c1C [DMXAA, 5,6-dimethylxanthenone-4-acetic acid]",antitumor immunity,[1],strong antitumor immunity
"CCCCCCCC/C=C\CCCCCCCC(=O)OC[C@@H](COP(=O)(OCC)OCC[N+](C)(C)C)OC(=O)CCCCCCC/C=C\CCCCCCCC (stereo partly shown) [EDOPC, 1,2-dioleoyl-sn-glycero-3-ethylphosphocholine]",IFN-β level in growth media,[2],essential for STING-dependent stimulation
CC(C)Cn1cnc2c(N)nc3ccccc3c21 [imiquimod],IFN-β level in growth media,[3],same as potent in stimulating IFN-β expression
same,TNF-α level in growth media,[3],same as potent in stimulating TNF-α expression
